The values that follow are results of earlier work, collected in patent publication US10881615B2, “Pharmaceutical composition comprising dabigatran etexilate, and preparation method, solid preparation and use thereof” (Chia Tai Tianqing Pharmaceutical Group Co., Ltd., priority 2014, dated 2021).

The conditions of this data set: medium at pH of >4.0.

`CCCCCCOC(=O)NC(=N)c1ccc(NCc2nc3cc(C(=O)N(CCC(=O)OCC)c4ccccn4)ccc3n2C)cc1` [dabigatran etexilate, 3-[(2-{[4-(hexyloxycarbonylamino-imino-methyl)-phenylamino]-methyl}-1-methyl-1H-benzimidazol-5-yl-carbonyl)-pyridin-2-yl-amino]-ethyl propionate]: the Solubility result is listed as “almost insoluble”.
